Experimental data as given in patent US8217167B2, “Phenanthrylphenol linked pyrrolo [2, l-c] [l, 4] benzodiazepine hybrids as potential antitumour agents and process for the preparation thereof” (Council of Scientific & Industrial Research, priority 2008, dated 2012).

Columns and labels:
[1] = test system: duplex-form calf thymus DNA (CT-DNA); experiment: Thermal denaturation studies with calf thymus DNA; assay type: binding; settings: [PBD]:[DNA] molar ratio 1:5, CT-DNA 100 μM, ligand 20 μM, sodium phosphate buffer pH 7.00; for ΔTm after incubation at 37° C. for 0 h: 0 h incubation at 37° C.; for ΔTm after incubation at 37° C. for 18 h: 18 h incubation at 37° C.
Description: Compounds have been subjected to thermal denaturation studies with duplex-form calf thymus DNA (CT-DNA) using a modification of a reported procedure (Newman, M. S. Carcinog-compr. Surv. 1976, 1, 203; (b) Hecht, S. S.; Loy, M.; Hoffman, Carcinog-compr. Surv. 1976, 1, 325). Working solutions in aqueous buffer (10 mM NaH2PO4/Na2HPO4, 1 mM Na2EDTA, pH 7.00+0.01) containing CT-DNA (100 μm in phosphate) and the PBD (20 μm) have been prepared by addition of concentrated PBD solutions in DMSO to obtain a fixed [PBD]/[DNA] molar ratio of 1:5. The DNA-PBD solutions have been incubated at 37° C. for 0 and 18 h prior to analysis. Samples have been monitored at 260 nm using a Beckman DU-800 spectrophotometer fitted with high performance temperature controller, and heated at 1° C. min^−1 in the 40-110° C. range. DNA helix→coil transition temperatures (Tm) have been obtained from the maxima in the d(A260)/dT derivative plots. Drug-induced alterations in DNA melting behavior are given by: ΔTm=Tm(DNA+PBD)−Tm(DNA alone), where the Tm value for the PBD-free CT-DNA is 69.1±0.01.
The DNA binding activity for these new C8-linked phenanthrylphenol-PBD hybrids has been examined by thermal denaturation studies using calf thymus (CT) DNA. […] The data for the compounds 6a-c is included in Table 1 for comparison.

[2] = test system: Colon 502713; assay type: cell-based; settings: human
Description: (§1) The compounds 6a-c (n=1-3) were examined for preliminary in vitro cytotoxicity on six cell lines, among these compound's 6a has shown promising activity as shown in Table 2 and was further taken up detailed in vitro anticancer activity at the National Cancer Institute, Maryland, USA.

[3] = test system: Colon HCT-15; assay type: cell-based; settings: human
Description: as §1

[4] = test system: Liver HEP-2; assay type: cell-based; settings: human
Description: as §1

[5] = test system: Lung A-549; assay type: cell-based; settings: human
Description: as §1

[6] = test system: Neuroblastoma IMR-32; assay type: cell-based; settings: human
Description: as §1

[7] = test system: Ovary OVCAR-5; assay type: cell-based; settings: human
Description: as §1

[8] = test system: sixty human tumour cells derived from nine cancer panels; experiment: NCI in vitro anticancer activity (SRB assay), mean graph midpoints over sixty cell lines; assay type: cell-based
Description: (§2) The compound 6a was evaluated for in vitro anticancer activity against sixty human tumour cells derived from nine cancer panels (leukemia, non-small-cell lung, colon, CNS, melanoma, ovarian, prostate, renal and breast cancer) as shown in Table 4. For compound 6a, dose response curves for each cell line were measured at a minimum of five concentrations at 10 fold dilutions. A protocol of 48 h continuous drug exposure was used and a sulforhodamine B (SRB) protein assay was used to estimate cell viability or growth. The concentration causing 50% cell growth inhibition (GI50), total cell growth inhibition (TGI 0% growth) and 50% cell death (LC50, […]) compared with the control was calculated.

[9] = test system: Leukemia cancer cell lines; experiment: NCI in vitro anticancer activity (SRB assay), Leukemia panel; assay type: cell-based; settings: Homo sapiens
Description: as §2
(§3) Each cancer type represents the average of six to nine different cancer cell lines.

[10] = test system: Non-small-cell-lung cancer cell lines; experiment: NCI in vitro anticancer activity (SRB assay), Non-small-cell-lung panel; assay type: cell-based; settings: Homo sapiens
Description: as §2, §3

[11] = test system: Colon cancer cell lines; experiment: NCI in vitro anticancer activity (SRB assay), Colon panel; assay type: cell-based; settings: Homo sapiens
Description: as §2, §3

[12] = test system: CNS cancer cell lines; experiment: NCI in vitro anticancer activity (SRB assay), CNS panel; assay type: cell-based; settings: Homo sapiens
Description: as §2, §3

[13] = test system: Melanoma cancer cell lines; experiment: NCI in vitro anticancer activity (SRB assay), Melanoma panel; assay type: cell-based; settings: Homo sapiens
Description: as §2, §3

[14] = test system: Ovarian cancer cell lines; experiment: NCI in vitro anticancer activity (SRB assay), Ovarian panel; assay type: cell-based; settings: Homo sapiens
Description: as §2, §3

[15] = test system: Renal cancer cell lines; experiment: NCI in vitro anticancer activity (SRB assay), Renal panel; assay type: cell-based; settings: Homo sapiens
Description: as §2, §3

[16] = test system: Prostate cancer cell lines; experiment: NCI in vitro anticancer activity (SRB assay), Prostate panel; assay type: cell-based; settings: Homo sapiens
Description: as §2, §3

[17] = test system: Breast cancer cell lines; experiment: NCI in vitro anticancer activity (SRB assay), Breast panel; assay type: cell-based; settings: Homo sapiens
Description: as §2, §3

[18] = 48 h, read-out: Log10 LC50 (concentration in mol/L causing 50% lethality) (converted)

For `COc1cc2c(cc1OCCCCCOc1ccc(-c3cc4ccccc4c4ccccc34)cc1)N=C[C@@H]1CCCN1C2=O` [Compound 6c, (11aS)-7-methoxy-8-(5-[4-(9-phenanthryl)phenoxy]pentyloxy)-2,3,5,11a-tetrahydro-1H-benzo[e]pyrrolo[1,2-a][1,4]diazepin-5-one], the “ΔTm after incubation at 37° C. for 0 h” value [1] was 0.1 °C, the “ΔTm after incubation at 37° C. for 18 h” value [1] was 0.2 °C and the “Preliminary in vitro cytotoxicity data, Colon 502713” value (“Preliminary … Colon 502713” for short) [2] was 74. The “Preliminary in vitro cytotoxicity data, Colon HCT-15” value (shortened to “Preliminary … Colon HCT-15”) [3] was 79, the “Preliminary in vitro cytotoxicity data, Liver HEP-2” value (“Preliminary … Liver HEP-2” below) [4] was 65 and the “Preliminary in vitro cytotoxicity data, Lung A-549” value (“Preliminary … Lung A-549” for short) [5] was 36. The “Preliminary in vitro cytotoxicity data, Neuroblastoma IMR-32” value (“Preliminary … Neuroblastoma IMR-32” for short) [6] was 73 and the “Preliminary in vitro cytotoxicity data, Ovary OVCAR-5” value (shortened to “Preliminary … Ovary OVCAR-5”) [7] was 98.

For `COc1cc2c(cc1OCCCCOc1ccc(-c3cc4ccccc4c4ccccc34)cc1)N=C[C@@H]1CCCN1C2=O` [Compound 6b, (11aS)-7-methoxy-8-4-[4-(9-phenanthryl)phenoxy]butoxy-2,3,5,11a-tetrahydro-1H-benzo[e]pyrrolo[1,2-a][1,4]diazepin-5-one], the “ΔTm after incubation at 37° C. for 0 h” value [1] was 0.3 °C, the “ΔTm after incubation at 37° C. for 18 h” value [1] was 0.5 °C and the “Preliminary … Colon 502713” value [2] was 72. For the same molecule, the “Preliminary … Colon HCT-15” value [3] was 77, the “Preliminary … Liver HEP-2” value [4] was 49 and the “Preliminary … Lung A-549” value [5] was 50. For the same molecule, the “Preliminary … Neuroblastoma IMR-32” value [6] was 67 and the “Preliminary … Ovary OVCAR-5” value [7] was 93.

With `COc1cc2c(cc1OCCCOc1ccc(-c3cc4ccccc4c4ccccc34)cc1)N=C[C@@H]1CCCN1C2=O` [Compound 6a, (11aS)-7-methoxy-8-3-[4-(9-phenanthryl)phenoxy]propoxy-2,3,5,11a-tetrahydro-1H-benzo[e]pyrrolo[1,2-a][1,4]diazepin-5-one] the “ΔTm after incubation at 37° C. for 0 h” value [1] was 1.0 °C, the “ΔTm after incubation at 37° C. for 18 h” value [1] was 1.8 °C and the “Preliminary … Colon 502713” value [2] was 69. The “Preliminary … Colon HCT-15” value [3] was 99, the “Preliminary … Liver HEP-2” value [4] was 58 and the “Preliminary … Lung A-549” value [5] was 88. The “Preliminary … Neuroblastoma IMR-32” value [6] was 85, the “Preliminary … Ovary OVCAR-5” value [7] was 98 and the “Log10 TGI mean graph midpoint (MG_MID)” value ([8]; 48 h continuous drug exposure, SRB assay, mean over human tumour cell lines) was −5.76. The GI50 ([8]; 48 h continuous drug exposure, SRB assay, mean over human tumour cell lines, read-out: Log10 GI50 mean graph midpoint (MG_MID) (converted)) was 0.525 µM, the CC50 ([8]; Homo sapiens, 48 h, read-out: Log10 LC50 mean graph midpoint (MG_MID) (converted)) was 5.5 µM and the CC50 [9, 18] was 15.1 µM. The GI50 ([9]; Leukemia panel average, 48 h exposure, SRB, read-out: Log10 GI50 (concentration in mol/L) (converted)) was 0.195 µM, the LC50 [10, 18] was 5.37 µM and the GI50 ([10]; Non-small-cell-lung panel average, 48 h exposure, SRB, read-out: Log10 GI50 (concentration in mol/L) (converted)) was 0.776 µM. For the same molecule, the CC50 [11, 18] was 4.9 µM, the GI50 ([11]; Colon panel average, 48 h exposure, SRB, read-out: Log10 GI50 (concentration in mol/L) (converted)) was 0.776 µM and the LC50 [12, 18] was 4.68 µM. It also gave a GI50 ([12]; CNS panel average, 48 h exposure, SRB, read-out: Log10 GI50 (concentration in mol/L) (converted)) of 0.813 µM, an LC50 [13, 18] of 4.68 µM and a GI50 ([13]; Melanoma panel average, 48 h exposure, SRB, read-out: Log10 GI50 (concentration in mol/L) (converted)) of 0.692 µM. It also gave a CC50 [14, 18] of 3.72 µM, a GI50 ([14]; Ovarian panel average, 48 h exposure, SRB, read-out: Log10 GI50 (concentration in mol/L) (converted)) of 0.501 µM and an LC50 (50% lethal concentration) [15, 18] of 3.63 µM. The GI50 ([15]; Renal panel average, 48 h exposure, SRB, read-out: Log10 GI50 (concentration in mol/L) (converted)) was 0.49 µM, the LC50 (concentration causing 50% tumour cell death) [16, 18] was 3.89 µM and the GI50 ([16]; Prostate panel average, 48 h exposure, SRB, read-out: Log10 GI50 (concentration in mol/L) (converted)) was 0.398 µM. It also gave an LC50 (50% lethal concentration) [17, 18] of 8.71 µM and a GI50 ([17]; Breast panel average, 48 h exposure, SRB, read-out: Log10 GI50 (concentration in mol/L) (converted)) of 0.339 µM.

With `COc1cc2c(cc1O)N=CC1CCCN1C2=O` (centres unmarked) [DC-81, reference compound] the “ΔTm after incubation at 37° C. for 0 h” value [1] was 0.3 °C and the “ΔTm after incubation at 37° C. for 18 h” value [1] was 0.7 °C.
